Patent US20230219957A1, “SMALL MOLECULE CB002-ANALOGES RESTORE THE P53 PATHWAY AND TARGET S-PHASE CHECKPOINT” (Brown University, priority 2020, published 2023)
pIC50: −log10 of the molar value.

Legend:
Assay type in all cases: cell-based, human
HCT116 p53 R273H = experiment: CellTiter-Glo (Cell-Titer glow) cytotoxicity assay; details: forty-eight hours
Experimental: (§1) CellTiter-Glo® luminescent cell viability assay. Cells were seeded in 96-well plates at a density of 5×10^3 cells per well. 20 μL of CellTiter-Glo® Reagent was added directly to the wells, following the manufacturers protocol. The bioluminescence signal was determined using an IVIS imaging system, optionally at a period of 48-72 hours after treatment.
(§2) CB002-analog #4 is a potent anti-tumor agent in vitro and in vivo. The inventors focused on lead CB002-analog #4 and investigated its therapeutic index in vitro and in vivo. The inventors treated an isogenic HCT116 cell line panel with 100 μM CB002 or 25 μM CB002-analog #4 and established IC50 values by the Cell-Titer glow cytotoxicity assay. Across this panel, CB002-analog #4 has a 20-fold to 30-fold range in IC50 values, independently of the HCT116 p53-status.

HCT116 p53+/+ = experiment: CellTiter-Glo (Cell-Titer glow) cytotoxicity assay; details: forty-eight hours
Experimental: as §1, §2

HCT116 p53−/− = experiment: CellTiter-Glo (Cell-Titer glow) cytotoxicity assay; details: forty-eight hours
Experimental: as §1, §2

HCT116 p53 R175H = experiment: CellTiter-Glo (Cell-Titer glow) cytotoxicity assay; details: forty-eight hours
Experimental: as §1
Overexpression of p53 R175H mutant by lentivirus infection. HCT116 p53^−/− cells, obtained from the Vogelstein Laboratory, Johns Hopkins University, were infected with a lentivirus vector containing the p53 R175H mutant (pLenti6/V5-p53_R175H, Addgene). Cells were selected with blasticidin (8 μg/mL)-containing media cultured for ten days. Blasticidin-resistant clones (pooled clones) were screened for expression of the p53 R175H mutation by Western blot analysis with p53 DO-1 antibody.
as §2

Noxa = Noxa protein expression by immunoblotting; details: for Noxa protein induction upon knockdown of ATF3/4: SW480 cells, 100 μM CB002 or 25 μM CB002-analog #4
Experimental: Immunoblotting. After treatment, cells were harvested by trypsinization, washed with phosphate-buffered saline, and lysed with RIPA buffer (Sigma-Aldrich) for thirty minutes to one hour at 4° C. Protein lysates were spun down. The supernatant was collected. Protein quantification was performed using a Pierce™ BCA Protein Assay Kit (Thermo Fisher Scientific, Waltham, Mass., USA). 1× NuPAGE® LDS sample buffer (Thermo Fisher Scientific, Waltham, Mass., USA) and 2-Mercaptoethanol as the reducing agent (Sigma-Aldrich) were added to protein lysates followed by boiling for fifteen minutes at 95° C. Equal total protein amounts samples were loaded into NuPAGE™ Novex™ 4-12% Bis-Tris Protein Gels (1.5 mm, Thermo Fisher Scientific, Waltham, Mass., USA). Gel electrophoresis was performed with NuPAGE™ MES SDS Running Buffer. Proteins were transferred onto an Immobilon-P membrane (PVDF, EMD Millipore, Taunton, Mass., USA) using a Bio-Rad system with a 10% Tris-Glycine and 10% methanol transfer buffer diluted in distilled and deionized water. After transfer, membranes were blocked with 10% milk in Tris-buffered saline with Tween 20 (TBST) solution. The membranes were then incubated overnight with the primary antibody, washed with TBST, and incubated with secondary antibody for one hour. Incubations were performed in 5% milk in TBST solution. Signal was detected by using a chemiluminescent detection kit, followed by autoradiography. The following antibodies were used: p53 (DO-1, 1:1000, Santa Cruz, Calif., USA), p73 (1:1000, Bethyl Laboratories), p21, and NOXA (1:250, EMD Millipore, Taunton, Mass., USA), DR5, FADD, cleaved caspase 3, cleaved caspase 8, cleaved PARP, and LC3B (1:1000, Cell Signaling Technology, Inc., Danvers, Mass. USA), and β-actin (1:10000, Sigma-Aldrich, St. Louis, Mo., USA).
Immunoblotting (additional method). […] Total protein per sample was determined using a Pierce™ BCA Protein Assay Kit (Thermo Fisher Scientific, Waltham, Mass., USA). […] Signal was detected using a chemiluminescent detection kit, followed by autoradiography. […]

SW480 colon cancer cells = experiment: Immunoblot of cell cycle markers; details: for M-phase marker pH3(Ser10) / pcdc2(Tyr15) and pcdc25c(Ser16) expression: combination with etoposide; for S-phase marker p-RPA-RPA2(S8) expression: synchronized SW480, time-course after release
Experimental: Immunoblotting (additional method). After treatment, floating cells were collected, and adherent cells were trypsinized, washed with phosphate-buffered saline, and lysed with RIPA buffer (Sigma-Aldrich, St. Louis, Mo., USA) for thirty minutes to one hour at 4° C. Protein lysates were pelleted. The supernatant was collected. Total protein per sample was determined using a Pierce™ BCA Protein Assay Kit (Thermo Fisher Scientific, Waltham, Mass., USA). Proteins were denatured using 1× NuPAGE® LDS sample buffer (Thermo Fisher Scientific, Waltham, Mass., USA) and reduced with 2-mercaptoethanol (Sigma-Aldrich, St. Louis, Mo., USA). Protein lysates were boiled for fifteen min at 95° C. After protein normalization, samples were loaded into NuPAGE™ Novex™ 4-12% Bis-Tris Protein Gels (Thermo Fisher Scientific, Waltham, Mass., USA). Gel electrophoresis was performed with NuPAGE™ MES SDS Running Buffer. Proteins were transferred onto an Immobilon-P membrane (PVDF, EMD Millipore, Taunton, Mass., USA) using a Bio-Rad system with a 10% Tris-Glycine and 10% methanol transfer buffer diluted in distilled and deionized water. Membranes were blocked with 10% milk in Tris-buffered saline with Tween 20 (TBST) solution. The membranes were incubated overnight with the primary antibody, washed with TBST, and incubated with secondary antibody for one hour. Primary antibody incubations were performed in 5% milk or 5% bovine serum albumin in TBST solution as per manufacturer instructions. Signal was detected using a chemiluminescent detection kit, followed by autoradiography. The following antibodies were used: p53 (1:1000, #sc-126, Santa Cruz Biotechnology, Santa Cruz, Calif., USA), p73 (1:1000, #A300-126A, Bethyl Laboratories), Noxa (1:250, #OP180, EMD Millipore, Taunton, Mass., USA), DR5 (#3696), cleaved PARP (#9546), phospho-RPA32/RPA2 (#54762), p-cdc2 (#9111), p-cdc25c, pH3 (#3377) (1:1,000; Cell Signaling Technology, Inc., Danvers, Mass. USA) and β-actin (1:10000, A5441, Sigma).
Cell synchronization. Synchronized cells were synchronized by double thymidine block. Cells were treated with […] thymidine for sixteen hours. The drug was removed and replaced by complete growth media for eight hours. Cells were treated for the second time with […] thymidine for sixteen hours. At this point, cells were treated and harvested.

| Structure (SMILES) | pIC50 (HCT116 p53 R273H; Homo sapiens, HCT-116) | pIC50 (HCT116 p53+/+; Homo sapiens, HCT-116) | pIC50 (HCT116 p53−/−; Homo sapiens, HCT-116) | pIC50 (HCT116 p53 R175H; Homo sapiens, HCT-116) | Noxa expression (Noxa; 24 hours, DLD-1 and SW480 cells) | Noxa protein induction upon knockdown of ATF3/4 (Noxa) | M-phase marker pH3(Ser10) (SW480 colon cancer cells; synchronized SW480) | pcdc2(Tyr15) and pcdc25c(Ser16) expression (SW480 colon cancer cells; synchronized SW480) | S-phase marker p-RPA-RPA2(S8) expression (SW480 colon cancer cells) | pIC50 (HCT116 p53 R273H) | pIC50 (HCT116 p53+/+) | pIC50 (HCT116 p53−/−) | pIC50 (HCT116 p53 R175H) | pcdc2(Tyr15) and pcdc25c(Ser16) protein expression (SW480 colon cancer cells; single agent, synchronized SW480) | p21 (SW480 colon cancer cells; time-course after synchronization release) | Cyclin A expression (SW480 colon cancer cells; time-course, compared to DMSO and etoposide) |
| --- | --- | --- | --- | --- | --- | --- | --- | --- | --- | --- | --- | --- | --- | --- | --- | --- |
| Cn1c(=O)c2[nH]c(Nc3ccccc3)nc2n(C)c1=O [CB002] | 3.85 | 3.62 | 3.79 | 3.40 | induce Noxa expression | abrogated Noxa protein induction | does not increase | decrease in expression | increase |  |  |  |  |  |  |  |
| Cn1c(=O)c2[nH]c(Nc3cccc(C(F)(F)F)c3)nc2n(C)c1=O [CB002-analog #4] |  |  |  |  |  | abrogated Noxa protein induction | does not increase | decrease in expression | increased compared to DMSO | 5.09 | 5.06 | 5.05 | 5.35 | decreased | increase | did not decrease over time |
